conditions: not given

SMILES | melting point [°C] | boiling point [°C] | log10 Henry constant (atm·m³/mol) | log10 vapour pressure (mmHg) | log10 Koc (L/kg) | ready biodegradability | log10 Koa | log10 biodegradation half-life (days)
CC(=O)CC(c1ccc(Cl)cc1)c1c(O)c2ccccc2oc1=O (stereo unspecified) | 169 | – | – | – | – | – | – | –
O=C1NCNC1(c1ccccc1)c1ccccc1 | 183 | – | – | – | – | – | – | –
O=C(Cl)C(F)(F)F | 146 | -27 | -3.35 | – | – | – | – | –
CCc1c(C(=O)O)c(=O)cnn1-c1ccc(Cl)cc1 | 269 | – | – | – | – | – | – | –
OCC(F)F | -28.2 | 95.5 | – | – | – | – | – | –
C=CCCCC(C)C | – | 113 | – | 1.4 | – | – | – | –
CCCCCCCC(=O)CCC | 4.5 | – | – | – | – | – | – | –
Cc1ccc2ccc3ccccc3c2c1 | 65 | 350 | – | – | – | – | – | –
FC(F)(F)C(F)(I)C(F)(F)F | – | 40 | – | – | – | – | – | –
O=[N+]([O-])c1ccc(Sc2ccccc2)cc1 | 56 | – | – | – | – | – | – | –
CCOC(=O)CCCCCCC(=O)OCC | 5.9 | 283 | – | – | – | – | – | –
CCOC(=O)C=C1SC(N2CCCCC2)C(=O)N1CC (stereo unspecified) | 86.5 | – | – | – | – | – | – | –
COc1cc(OC)nc(N=C(O)NS(=O)(=O)N(C)S(C)(=O)=O)n1 | 162 | – | – | -6.78 | – | – | – | –
FC(Cl)C(Cl)Cl (stereo unspecified) | – | 102 | – | – | – | – | – | –
c1cscn1 | – | 118 | – | 1.23 | – | – | – | –
CCCCCN1CCCCC1 | – | 198 | – | – | – | – | – | –
c1ccc2c(-c3cccc4ccccc34)cccc2c1 | 160 | – | – | – | – | – | – | –
N#CC(=O)c1ccccc1 | 32.5 | 206 | – | – | – | – | – | –
CC=C(CC)C(C)C(=O)CC (stereo unspecified) | 74.5 | – | – | – | – | – | – | –
Nc1cc(N)nc(N)n1 | 250 | – | – | – | – | – | – | –
O=P(O)(O)CP(=O)(O)O | 200 | – | – | – | – | – | – | –
CCCCC(C)C(C)CC (stereo unspecified) | – | 163 | – | – | – | – | – | –
CCC1(C)CC1 | -130 | 56.8 | – | – | – | – | – | –

SMILES | melting point [°C] | boiling point [°C] | log10 Henry constant (atm·m³/mol) | log10 vapour pressure (mmHg) | log10 Koc (L/kg) | ready biodegradability | log10 Koa | log10 biodegradation half-life (days)
Nc1c(O)cccc1[N+](=O)[O-] | 216 | – | – | – | – | – | – | –
OCC(F)(F)F | -43.5 | 74 | -4.76 | 1.85 | – | – | – | –
NC(=O)c1ccncc1 | 156 | – | – | – | – | – | – | –
CC(C)COC(=O)c1ccccc1C(=O)OCC(C)C | – | 296 | – | – | 3.14 | not readily biodegradable | – | –
Cc1ccc(C#N)cc1 | 29.5 | 217 | – | -0.504 | – | – | – | –
CCOC(=O)[C@@H](C)Oc1ccc(Oc2nc3ccc(Cl)cc3o2)cc1 | – | – | – | -7.52 | – | – | – | –
Oc1cc(Cl)ccc1Oc1ccc(Cl)cc1Cl | 55.6 | – | – | – | – | not readily biodegradable | – | –
NNC(=O)c1ccccc1O | 148 | – | – | – | – | – | – | –
CC(Br)CCBr (stereo unspecified) | – | 174 | – | – | – | – | – | –
Oc1ccccc1C=NCCN=Cc1ccccc1O | 128 | – | – | – | – | – | – | –
FC(F)(F)CC(F)(F)F | -94.2 | -1.1 | – | – | – | – | – | –
CN1CC[C@]23c4c5ccc(OCc6ccccc6)c4O[C@H]2[C@@H](O)C=C[C@H]3[C@H]1C5 | 132 | – | – | – | – | – | – | –
CN[C@@H](Cc1ccc(O)cc1)C(=O)O | 293 | – | – | – | – | – | – | –
C[N+](C)(C)CCOC(=O)CCC(=O)OCC[N+](C)(C)C.[Br-].[Br-] | 225 | – | – | – | – | – | – | –
CNc1ccccc1C(=O)O | 180 | – | – | – | – | readily biodegradable | – | –
C=C(C)c1cccc(C)c1 | – | 185 | – | – | – | – | – | –
O=C1c2ccccc2CCc2ccccc21 | 30 | – | – | – | – | – | – | –
C1=CCCCC=C1 | -110 | 120 | – | – | – | – | – | –
CCN(CC)CCNC(=O)c1cc(S(C)(=O)=O)ccc1OC | 124 | – | – | – | – | – | – | –
Brc1cc(Br)c(Br)cc1Br | 182 | – | – | – | – | – | – | –
CC(C)COC(=O)c1ccc(N)cc1 | 64.5 | – | – | – | – | – | – | –
Clc1cc(Cl)c(Cl)c(Oc2ccccc2)c1 | – | – | – | -3.66 | – | – | – | –
CC1CCCC(C)C1 (stereo unspecified) | – | 122 | – | 1.3 | – | – | – | –

SMILES | melting point [°C] | boiling point [°C] | log10 Henry constant (atm·m³/mol) | log10 vapour pressure (mmHg) | log10 Koc (L/kg) | ready biodegradability | log10 Koa | log10 biodegradation half-life (days)
C/C(=C\C(=O)O)C1CCCCC1 | 85.5 | – | – | – | – | – | – | –
COc1cccc(S)c1 | – | 224 | – | – | – | – | – | –
COC(=O)c1cccc(C)c1S(=O)(=O)NC(=O)Nc1nc(OCC(F)(F)F)nc(N(C)C)n1 | – | – | – | – | 1.84 | – | – | –
OCCC(F)(F)F | – | 99.5 | – | – | – | – | – | –
Oc1ccc(OCc2ccccc2)cc1 | 122 | – | – | – | – | – | – | –
COc1cc(OC)nc(Sc2cccc(Cl)c2C(=O)[O][Na])n1 | – | – | – | – | 1.15 | – | – | –
O=C(O)Cc1ccc(O)cc1 | 152 | – | – | – | – | – | – | –
S=C1SCCS1 | 35 | 307 | – | – | – | – | – | –
CN(C)O | 108 | – | – | 1.33 | – | – | – | –
Cc1c(C)c(C)c(C(=O)O)c(C)c1C | 210 | – | – | – | – | – | – | –
CN(C)c1ccc(N=Nc2ccccc2)cc1 | 117 | – | – | -7.15 | 3.87 | – | – | –
Nc1c(Br)cc(Br)c2c1C(=O)c1ccccc1C2=O | 221 | – | – | – | – | – | – | –
CCCC(CCC)C(C)C | – | 159 | – | – | – | – | – | –
CNC1CCCCC1 | – | 147 | – | – | – | – | – | –
Cc1nn(C)c(OCC(=O)c2ccccc2)c1C(=O)c1ccc(Cl)cc1Cl | 112 | – | – | -6.44 | – | – | – | –
O=C(OCc1ccco1)c1ccco1 | 27.5 | – | – | – | – | – | – | –
CC(C)=CCCC(C)CC(=O)O (stereo unspecified) | 257 | – | – | – | – | – | – | –
N=C(N)N1CCc2ccccc2C1 | 279 | – | – | – | – | – | – | –
Clc1nnnn1-c1ccccc1 | 123 | – | – | – | – | – | – | –
CCOP(=S)(OCC)SCCS(=O)(=O)CC | – | – | – | – | 3.22 | – | – | –
CCCCCCCCCCCCCCCCO | 49.3 | 334 | – | -5.22 | – | readily biodegradable | 9.9 | –
CCCCCCCCCCCCCCCCCC(=O)OCCOCCOCCOCCO | 40 | – | – | – | – | – | – | –
CCCCCC[Si](Cl)(CCCCCC)CCCCCC | – | – | – | – | – | not readily biodegradable | – | –

SMILES | melting point [°C] | boiling point [°C] | log10 Henry constant (atm·m³/mol) | log10 vapour pressure (mmHg) | log10 Koc (L/kg) | ready biodegradability | log10 Koa | log10 biodegradation half-life (days)
CC(C)OC(=O)[C@@H](C)N(C(=O)c1ccccc1)c1ccc(F)c(Cl)c1 | – | – | – | -6.2 | – | – | – | –
Clc1cc(Cl)c(-c2cccc(Cl)c2Cl)cc1Cl | – | – | -4.13 | – | 5.69 | – | – | –
CC[C@H]1CC[C@H]2[C@@H]3CC[C@@H]4CCCC[C@]4(C)[C@H]3CC[C@]12C | 84 | – | – | – | – | – | – | –
C=C(CC)C(C)CC (stereo unspecified) | – | 112 | – | – | – | – | – | –
CC1=NNC(=O)N(/N=C/c2cccnc2)C1 | 217 | – | – | – | – | – | – | –
Cc1cc(N)ncn1 | 197 | – | – | – | – | – | – | –
CC(CCC(=O)O)n1nc2ccccc2n1 (stereo unspecified) | 73 | – | – | – | – | – | – | –
O=C(O)c1cc([N+](=O)[O-])cc([N+](=O)[O-])c1 | 205 | – | – | – | 1.53 | not readily biodegradable | – | –
C=COCCCCCCCCCCCCCCCCCC | 30 | – | – | – | – | – | – | –
C/C=C/C(=O)OC | -42 | 120 | – | – | – | – | – | –
CN1C(=O)c2ccc([N+](=O)[O-])cc2C1=O | – | 361 | – | – | – | – | – | –
N#CCCN(CCO)c1ccc(N=Nc2ccc([N+](=O)[O-])cc2Cl)cc1 | 157 | – | – | – | – | – | – | –
C=COC(=O)CC | -80 | 91.2 | – | – | – | readily biodegradable | – | –
CCC(C)CC(C)=O (stereo unspecified) | – | 144 | – | – | – | – | – | –
COC(=O)CS | – | 148 | – | 0.477 | – | – | – | –
Nc1ccc(F)cc1 | -0.8 | 182 | – | – | – | – | – | –
C[N+]1(C)CCCCC1.[Cl-] | 223 | – | – | – | – | – | – | –
Clc1cc2c(Cl)ccc(Cl)c2c(Cl)c1Cl | – | – | – | -6 | – | – | 9.1 | –
CC1CCCCC1 | -127 | 101 | -0.367 | 1.66 | – | – | 3.03 | 0.602
CCCCCCCCOC(=O)CCCC | -42.3 | 262 | – | – | – | – | – | –
CCC(=O)OC(C)C | – | 110 | – | 1.35 | – | – | – | –
CCCCCCNC(=O)n1cc(F)c(=O)[nH]c1=O | 110 | – | – | – | – | – | – | –

same assay, conditions: fish

SMILES | log10 BCF | log10 biotransformation half-life (days)
Oc1cc(Cl)ccc1Oc1ccc(Cl)cc1Cl | 1.72 | –
Brc1cc(Br)c(Br)cc1Br | 3.59 | 1.35
CCOP(=S)(OCC)SCCS(=O)(=O)CC | 0.7 | -0.67
Clc1cc(Cl)c(-c2cccc(Cl)c2Cl)cc1Cl | – | 2.55
CC1CCCCC1 | 2.27 | 0.57

Reference: the OPERA property sets (Mansouri et al. 2018)
